Test system: 327498-153-R-J2-PDC complex spheroid growth, % test/control
Test: Anticancer human tumor 327498-153-R-J2-PDC patient-derived uterine carcinosarcoma cell line growth inhibition [Asc]
Conditions: for IC50: curve of first compound; for viability, T/C: stronger effect = lower value
In short: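 Complex spheroids combining tumor cells with HUVEC endothelial cells and human MSCs, at 37 degrees C, 5% CO2; agents tested alone or combined, half-log dilutions from at or near clinical Cmax, or 10 microM if Cmax unknown.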

[1] = second compound 0.01 µM, first compound 0.0316 µM
[2] = second compound 0.01 µM, first compound 0.1 µM
[3] = second compound 0.01 µM, first compound 0.316 µM
[4] = second compound 0.01 µM, first compound 1 µM
[5] = second compound 0.0316 µM, first compound 0.0316 µM
[6] = second compound 0.0316 µM, first compound 0.1 µM
[7] = second compound 0.0316 µM, first compound 0.316 µM
[8] = second compound 0.0316 µM, first compound 1 µM
[9] = second compound 0.1 µM, first compound 0.0316 µM
[10] = second compound 0.1 µM, first compound 0.1 µM
[11] = second compound 0.1 µM, first compound 0.316 µM
[12] = second compound 0.1 µM, first compound 1 µM
[13] = second compound 0.316 µM, first compound 0.0316 µM
[14] = second compound 0.316 µM, first compound 0.1 µM
[15] = second compound 0.316 µM, first compound 0.316 µM
[16] = second compound 0.316 µM, first compound 1 µM
[17] = second compound 1 µM, first compound 0.0316 µM
[18] = second compound 1 µM, first compound 0.1 µM
[19] = second compound 1 µM, first compound 0.316 µM
[20] = second compound 1 µM, first compound 1 µM
[21] = second compound 0.01 µM, first compound 0.00316 µM
[22] = second compound 0.01 µM, first compound 0.01 µM
[23] = second compound 0.0316 µM, first compound 0.00316 µM
[24] = second compound 0.0316 µM, first compound 0.01 µM
[25] = second compound 0.1 µM, first compound 0.00316 µM
[26] = second compound 0.1 µM, first compound 0.01 µM
[27] = second compound 0.316 µM, first compound 0.00316 µM
[28] = second compound 0.316 µM, first compound 0.01 µM
[29] = second compound 1 µM, first compound 0.00316 µM
[30] = second compound 1 µM, first compound 0.01 µM
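Note: spheroids exposed to compound for 7 days after 3 days of growth.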
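Throughout, for viability, T/C: 100% = DMSO vehicle control wells.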

For `C=CC(=O)N1CCN(c2nc(=O)n(-c3c(C)ccnc3C(C)C)c3nc(-c4c(O)cccc4F)c(F)cc23)C(C)C1` (stereo not given) + CNC(C)C(=O)NC1CN(S(=O)(=O)c2cccc(S(=O)(=O)N3CCC4CCC(C(=O)NC(c5ccccc5)c5ccccc5)N4C(=O)C(NC(=O)C(C)NC)C3)c2)CCC2CCC(C(=O)NC(c3ccccc3)c3ccccc3)N2C1=O, the IC50 (second compound 0.01 µM) was > 10000 nM, the IC50 (second compound 0.0316 µM) was > 10000 nM and the IC50 (second compound 0.1 µM) was > 10000 nM. The IC50 (second compound 0.316 µM) was > 10000 nM, the IC50 (second compound 1 µM) was > 10000 nM and the viability, T/C [1] was 84.2%. The viability, T/C [2] was 96%, the viability, T/C [3] was 75% and the viability, T/C [4] was 74.6%. For the same compound, the viability, T/C (second compound 0.01 µM, first compound 3.16 µM) was 77.8%, the viability, T/C (second compound 0.01 µM, first compound 10 µM) was 64.6% and the viability, T/C [5] was 83.5%. For the same compound, the viability, T/C [6] was 77.9%, the viability, T/C [7] was 70.5% and the viability, T/C [8] was 67%. The viability, T/C (second compound 0.0316 µM, first compound 3.16 µM) was 72.2%, the viability, T/C (second compound 0.0316 µM, first compound 10 µM) was 62.9% and the viability, T/C [9] was 86%. For the same compound, the viability, T/C [10] was 79.4%, the viability, T/C [11] was 84.5% and the viability, T/C [12] was 77.6%. The viability, T/C (second compound 0.1 µM, first compound 3.16 µM) was 70.4%, the viability, T/C (second compound 0.1 µM, first compound 10 µM) was 67.6% and the viability, T/C [13] was 89.4%. The viability, T/C [14] was 83.3%, the viability, T/C [15] was 80.7% and the viability, T/C [16] was 73.8%. For the same compound, the viability, T/C (second compound 0.316 µM, first compound 3.16 µM) was 77.2%, the viability, T/C (second compound 0.316 µM, first compound 10 µM) was 75.5% and the viability, T/C [17] was 90.6%. The viability, T/C [18] was 78.8%, the viability, T/C [19] was 85.4% and the viability, T/C [20] was 77%. The viability, T/C (second compound 1 µM, first compound 3.16 µM) was 72.2% and the viability, T/C (second compound 1 µM, first compound 10 µM) was 69.7%.

With `COc1c(OCCCN2CCOCC2)ccc2c3n(c(=NC(=O)c4cnc(N)nc4)nc12)CCN3` + CNC(C)C(=O)NC1CN(S(=O)(=O)c2cccc(S(=O)(=O)N3CCC4CCC(C(=O)NC(c5ccccc5)c5ccccc5)N4C(=O)C(NC(=O)C(C)NC)C3)c2)CCC2CCC(C(=O)NC(c3ccccc3)c3ccccc3)N2C1=O the IC50 (second compound 0.01 µM) was 144 nM, the IC50 (second compound 0.0316 µM) was 144 nM and the IC50 (second compound 0.1 µM) was 135 nM. For the same compound, the IC50 (second compound 0.316 µM) was 137 nM, the IC50 (second compound 1 µM) was 146 nM and the viability, T/C [21] was 93.4%. The viability, T/C [22] was 92.7%, the viability, T/C [1] was 92.3% and the viability, T/C [2] was 57.5%. The viability, T/C [3] was 27.6%, the viability, T/C [4] was 4.73% and the viability, T/C [23] was 96.7%. The viability, T/C [24] was 94.9%, the viability, T/C [5] was 79.1% and the viability, T/C [6] was 62.1%. The viability, T/C [7] was 27.8%, the viability, T/C [8] was 3.85% and the viability, T/C [25] was 106%. It also gave a viability, T/C [26] of 89.5%, a viability, T/C [9] of 85.7% and a viability, T/C [10] of 59%. For the same compound, the viability, T/C [11] was 25.7%, the viability, T/C [12] was 3.38% and the viability, T/C [27] was 111%. For the same compound, the viability, T/C [28] was 110%, the viability, T/C [13] was 86.1% and the viability, T/C [14] was 59%. The viability, T/C [15] was 26.9%, the viability, T/C [16] was 2.23% and the viability, T/C [29] was 111%. The viability, T/C [30] was 95.2%, the viability, T/C [17] was 85.1% and the viability, T/C [18] was 65%. It also gave a viability, T/C [19] of 24.8% and a viability, T/C [20] of 2.95%.

`NC1CCC(NC2CC2c2ccccc2)CC1` (stereo not given) + CNC(C)C(=O)NC1CN(S(=O)(=O)c2cccc(S(=O)(=O)N3CCC4CCC(C(=O)NC(c5ccccc5)c5ccccc5)N4C(=O)C(NC(=O)C(C)NC)C3)c2)CCC2CCC(C(=O)NC(c3ccccc3)c3ccccc3)N2C1=O was tested, and the IC50 (second compound 0.01 µM) was > 100 nM, the IC50 (second compound 0.0316 µM) was > 100 nM and the IC50 (second compound 0.1 µM) was > 100 nM. The IC50 (second compound 0.316 µM) was > 100 nM, the IC50 (second compound 1 µM) was > 100 nM and the viability, T/C (second compound 0.01 µM, first compound 0.000316 µM) was 103%. It also gave a viability, T/C (second compound 0.01 µM, first compound 0.001 µM) of 106%, a viability, T/C [21] of 92.3% and a viability, T/C [22] of 97.6%. For the same compound, the viability, T/C [1] was 99.4%, the viability, T/C [2] was 96% and the viability, T/C (second compound 0.0316 µM, first compound 0.000316 µM) was 104%. For the same compound, the viability, T/C (second compound 0.0316 µM, first compound 0.001 µM) was 104%, the viability, T/C [23] was 101% and the viability, T/C [24] was 100%. The viability, T/C [5] was 99.9%, the viability, T/C [6] was 101% and the viability, T/C (second compound 0.1 µM, first compound 0.000316 µM) was 100%. It also gave a viability, T/C (second compound 0.1 µM, first compound 0.001 µM) of 101%, a viability, T/C [25] of 100% and a viability, T/C [26] of 104%. The viability, T/C [9] was 108%, the viability, T/C [10] was 98.9% and the viability, T/C (second compound 0.316 µM, first compound 0.000316 µM) was 101%. For the same compound, the viability, T/C (second compound 0.316 µM, first compound 0.001 µM) was 107%, the viability, T/C [27] was 106% and the viability, T/C [28] was 98.5%. For the same compound, the viability, T/C [13] was 96.8%, the viability, T/C [14] was 100% and the viability, T/C (second compound 1 µM, first compound 0.000316 µM) was 106%. The viability, T/C (second compound 1 µM, first compound 0.001 µM) was 113%, the viability, T/C [29] was 108% and the viability, T/C [30] was 105%. For the same compound, the viability, T/C [17] was 94.7% and the viability, T/C [18] was 97.8%.
